Values after ≈ are worked out from the molar mass of the structure shown.
Experiments:
Format in all cases: in vivo
[1] = test system: Erysiphe graminis f.sp. hordei; assay: Direct antisporulant activity against barley powdery mildew (Eg); parameters: scale not given here; details: foliar spray, 1 kg/ha; activity grade 1 or 2, not defined
Method in brief: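 Barley seedlings (cv. Golden Promise) were dusted with conidia one day before a foliar spray of compound. Plants were then held at ambient glasshouse conditions for up to 7 days. Sporulating leaf area (%) was scored against untreated control plants.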

[2] = test system: Plasmopara viticola; assay: Antisporulant activity against vine downy mildew (Pva); details: foliar spray, 1 kg/ha; activity grade 1 or 2, not defined
Method: (j) Antisporulant Activity Against Vine Downy Mildew (Plasmopara viticola; Pva)
The test is a direct antisporulant one using a foliar spray. The lower surfaces of leaves of whole vine plants (cv Cabernet Sauvignon) are inoculated by spraying with an aqueous suspension containing 10^4 zoosporangia/ml 2 days prior to treatment with the test compound. The inoculated plants are kept for 24 hours in a high humidity compartment, and then 24 hours at glasshouse ambient temperature and humidity. When the plants are dry, infected leaves are sprayed on their lower surfaces with a solution of active material in 1:1 water/acetone containing 0.04% w/w "Triton X-155" (trade mark) (an octylphenol polyethoxylate surfactant). The spraying is carried out with a moving track sprayer with delivers 620 liter/ha, and the concentration of active material is calculated to give an application rate of 1 kg/ha. After spraying, the plants are returned to normal glasshouse conditions for 96 hours and are then transferred to the high humidity compartment for 24 hours to induce sporulation, prior to assessment. Assessment is visual and is based on the percentage of the leaf area covered by sporulation compared with that on control leaves.

[3] = test system: Leptosphaeria nodorum; assay: Direct antisporulant activity against wheat leafspot (Ln); parameters: scale not given here; details: foliar spray, 1 kg/ha; activity grade 1 or 2, not defined
Method in brief: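 Single-leaf wheat plants were spray-inoculated with 8×10^5 spores/ml and held 24 h at high humidity before foliar spray treatment. Plants were then kept 5 days in the glasshouse. Read-out is the percentage of leaf area sporulating, relative to untreated controls.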

[4] = test system: Puccinia Recondita; assay: Direct protectant activity against wheat brown rust (Pr); parameters: scale not given here; details: foliar spray, 1 kg/ha, 10 days; activity grade 1 or 2, not defined
Method: (i) Activity Against Wheat Brown Rust (Puccinia Recondita; Pr) The test is a direct protectant one using a foliar spray. […] The plants are then sprayed with the test compound at a dosage of 1 kg/ha using a track sprayer as described under (a). Test compounds are applied as solutions or suspensions in a mixture of acetone and water (50:50 v/v) containing 0.04% surfactant ("TWEEN 20"--Trade Mark). 18-24 hours after treatment, the seedlings are inoculated by spraying the plants from all sides with an aqueous spore suspension containing about 10^5 spores/ml. For 18 hours after inoculation, the plants are kept in high humidity conditions at a temperature of 20°-22° C. Thereafter, the plants are kept in ambient glasshouse conditions, that is, in moderate relative humidity and at a temperature of 20° C. The disease is assessed 10 days after inoculation on the basis of the percentage of the plant covered by sporulating pustules compared with that on the control plants.

[5] = test system: Alternaria Solani; assay: Direct protectant activity against tomato early blight (As); parameters: As: activity against tomato early blight: scale not given here; details: for As: activity against tomato early blight: foliar spray as under (a), 8 days, activity grade 1 or 2, not defined; on As: activity against tomato early blight: dose 1000 g/ha
Method: (g) Activity Against Tomato Early Blight (Alternaria Solani; As). The test is a direct protectant one using a foliar spray. The upper surfaces of leaves of young tomato plants are sprayed with a solution of active material as described in (a) above. After 24 hours under normal glasshouse conditions, the upper surfaces of the leaves are inoculated by spraying with an aqueous suspension containing 10^4 spores/ml. The inoculated plants are kept for 72 hours in a high humidity compartment and are then removed to lower humidity (50-70% relative humidity). Assessment is made 8 days after inoculation.

[6] = test system: Plasmopara viticola; assay: Translaminar protectant test, vine downy mildew (Pvt); details: secondary screening
Description: The fungicidal activity of certain of the compounds was investigated further, in secondary screening.

[7] = test system: Botrytis cinerea; assay: Direct protectant activity against vine grey mould (Bcp); details: for Bcp: direct protectant activity against vine grey mould: foliar spray, 1 kg/ha, activity grade 1 or 2, not defined
Description: (b) Direct Protectant Activity Against Vine Grey Mould (Botrytis cinerea; Bcp) The test is a direct protectant one using a foliar spray and is effected as described under (a), with the difference that the leaves are inoculated by spraying with an aqueous solution containing 10^5 conidia/ml.

[8] = test system: Plasmopara viticola; assay: Direct protectant activity against vine downy mildew (Pvp); parameters: Pvp: direct protectant activity against vine downy mildew: scale not given here; details: foliar spray, 1 kg/ha; activity grade 1 or 2, not defined
Method in brief: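 Lower leaf surfaces of whole vine plants (cv Cabernet Sauvignon) were sprayed at 1 kg/ha in water/acetone with surfactant, then inoculated 24 h later with 10^4 zoosporangia/ml. Scored as % leaf area with sporulation versus control leaves.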

[9] = test system: rice root nematode Meloidogyne graminicola; assay: Nematicidal water screen; details: for activity against the nematodes, water screen: nematodes retained in dilute aqueous solution
Method: (§1) The nematicidal activity of the compounds of Example 17 and 23 was investigated. They were tested against the rice root nematode Meloidogyne graminicola in a water screen whereby the effect of retaining the nematodes in a dilute aqueous solution of the compounds was studied, and in a soil drench test in which the propensity of these nematodes to cause knots in the roots of grain sorghum S. bicolor was studied as a function of concentration of the compounds applied to the soil. […] Thus in the water screen test it was determined that the minimum inhibitory concentration of the compound of Example 23 was 0.53 ppm.

[10] = test system: rice root nematode Meloidogyne graminicola; assay: Nematicidal soil drench test (root knots in grain sorghum); details: knots in roots of grain sorghum S. bicolor
Method: as §1

| Structure (SMILES) | Eg: activity against barley powdery mildew [1] | Other: Pva, antisporulant activity against vine downy mildew [2] | Ln: activity against wheat leafspot [3] | Pr: activity against wheat brown rust [4] | As: activity against tomato early blight [5] | Pvp: direct protectant activity against vine downy mildew [8] | other results |
| --- | --- | --- | --- | --- | --- | --- | --- |
| CC1Oc2c(cccc2[N+]([O-])=NC#N)C1C (stereo not shown) [Example 9] | 1 | 1 | 1 |  |  |  |  |
| Cc1cc2cccc([N+]([O-])=NC#N)c2o1 [Example 16] |  |  |  | 1 | 2 | 2 | activity against Pvt [6]: high activity; Bcp: direct protectant activity against vine grey mould [7]: 2; activity against Bcp ([7]; secondary screening): high activity |
| CC1Oc2c(cc(Cl)cc2[N+]([O-])=NC#N)C1C (stereo not shown) [Example 5] | 1 | 2 | 1 | 2 |  | 2 |  |
| CC1(C)Cc2cc(Cl)cc([N+]([O-])=NC#N)c2O1 [Example 4] |  |  | 1 | 2 |  | 2 |  |
| CC1Cc2cc(Cl)cc([N+]([O-])=NC#N)c2O1 (stereo not shown) [Example 6] |  |  | 1 | 2 | 1 | 2 |  |
| Cc1oc2c([N+]([O-])=NC#N)cccc2c1C [Example 18] | 1 |  |  | 2 | 2 | 2 |  |
| Cc1cc2cc([N+]([O-])=NC#N)ccc2o1 [Example 23] | 1 | 2 |  | 2 | 1 |  | MIC ([9]; Meloidogyne graminicola, water screen, read-out: minimum inhibitory concentration, water screen): 0.53 µg/mL (≈ 2.63 µM); activity against the nematodes, water screen [9]: activity against the nematodes; activity against the nematodes, soil drench test [10]: activity against the nematodes |
| N#CN=[N+]([O-])c1cc(Cl)cc2c1OCC=C2 [Example 26] | 2 | 2 |  | 1 |  | 2 | activity against Pvt [6]: high activity; Bcp: direct protectant activity against vine grey mould [7]: 2 |
| N#CN=[N+]([O-])c1cc(Cl)cc2c1OC(CO)C2 (stereo not shown) [Example 11] |  |  |  | 1 |  | 2 |  |
| CC1(C)C=Cc2cc(F)cc([N+]([O-])=NC#N)c2O1 [Example 29] | 1 | 2 |  |  |  |  |  |
| N#CN=[N+]([O-])c1cccc2c3c(oc12)CCCC3 [Example 17] |  |  | 1 | 1 | 1 | 2 | activity against the nematodes, water screen [9]: activity against the nematodes; activity against the nematodes, soil drench test [10]: activity against the nematodes |
| N#CN=[N+]([O-])c1cc(Cl)cc2c1OC(CCl)C2 (stereo not shown) [Example 10] |  |  | 1 | 2 |  | 2 |  |
| N#CN=[N+]([O-])c1ccc2oc(=O)ccc2c1 [Example 1] |  |  | 1 | 2 | 2 | 2 | activity against As ([5]; secondary screening): high activity; activity against Pvt [6]: high activity; Bcp: direct protectant activity against vine grey mould [7]: 1 |
